The values below come from patent US8501734B2, “Medical intervention in haematological cancers” (Oncotyrol-Center for Personalized Cancer Medicine GmbH …, priority 2008, dated 2013).

Structures are written as SMILES. Structures can show the parent of a compound that is named as a salt. Some results are limits rather than exact numbers.

The subject of one data set is PI 3-K, PDK1, or SGK1. The settings on record: cited from earlier work.
In the next data set the test system is OPM2 cells. Description: Annexin V/PI apoptosis assay (FACS), OPM2 cells. On the set-up: apoptosis induction: unit not given here. The settings on record: OPM2 cells; for apoptosis induction, combination: Akt inhibitor + Imiquimod 20 μg/ml; for apoptosis induction, single agent: Imiquimod 20 μg/ml or Akt inhibitor alone. The data set is classed as cell-based. The method, then: (§1) After treatment adherent cells were trypsinized (as described before), and resuspended in corresponding full medium. Suspension cells or trypsinized adherent cells, supernatant and washing solution (1×PBS from washing before trypsinization) were pooled and then spun down (300 g for 3 min) washed in 2 ml and resuspended in 1000 of annexin V binding buffer and mixed with 2 μg/ml annexin V-Allophycocyanin (APC) (BD-Pharmingen, San Diego, Calif., USA) and 50 ng/ml of propidium iodide (PI; Sigma Aldrich). At least 10.000 cells were measured per sample using a Becton Dickinson FACSCalibur flow Cytometer (San Jose, Calif., USA). Percentage of Annexin V negative and PI negative cells were depicted in the figures. For the analysis of the pro-apoptotic activity of Imiquimod® in primary MM cells and non-malignant BMMCs, 5×10^5 cells BMMCs cells were treated with or without 40 μg/ml Imiquimod® for the indicated time periods. Cells were then harvested and washed twice with PBS. Detection of apoptotic cells was performed using the annexin V/PI assay according to manufacturers' instruction. Briefly, BMMCs were stained with a mixture of annexin V/FITC (Alexis Coorp., Laeufelfingen, Switzerland), propidium iodide (Sigma), anti-CD38-PE and anti-CD45-PC5 for 15 min at room temperature and immediately analyzed by flow cytometry. The percentages of viable cells (i.e. cells negative for annexin V/FITC and PI) within the MM (CD38^posCD45^low/absent) and non-MM fraction (CD38^neg/CD45^pos) were determined by flow cytometry.
Cells were cultured as described before and, treated with 40 μg/ml Imiquimod® or Gardiquimod® for 24 h, and apoptosis was assayed by AnnexinV/PI staining and FACS analysis.
(§2) Adherent cells were grown in 24-well plates to confluence and treated with 40 μg/ml Imiquimod® for 24 h. Cells were then trypsinized, suspended in full medium, stained for AnnexinV/PI and apoptosis was measured as described before. Suspension cells (250.000) were treated with 40 μg/ml Imiquimod® for 24 h, stained for Annexin/PI and apoptosis was measured as described above (Annexin V/Propidium Iodide apoptosis Assay).
(§3) OPM-2 and U266 cells (2.5×10^5 in 500 μl) were treated with either Imiquimod® alone (10 μg/500 μl), various inhibitors/drugs alone or with the combination of Imiquimod® and inhibitors for 24 or 48 h. In the controls the solvent of the drug has been added in appropriate amounts. Cells were then AnnexinV/PI stained and apoptosis measured as described before.

Another data set concerns Akt. The settings on record: cited from earlier work.
For data set [1] the following is noted: cited from earlier work.
The test system of the next data set is Akt phosphorylation. Description: Akt phosphorylation by Western blot with phospho-Akt antibody in OPM2 cells. The class given is cell-based. The method, then:
Cells were lysed in lysis-IP-Buffer supplemented with protease inhibitors and sodium orthovanadate. 10 μg of lysate were separated by SDS-PAGE (10% polyacrylamide) and transferred to methanol activated Hypond-P PVDF-membranes (Amersham, Freiburg, Germany) by semi-dry blotting. Membranes were blocked in a 3% bovine serum albumin solution or 5% non fat dry milk solution in phosphate buffered saline (PBS) with 0.1% Tween 20 (PBT). Primary antibodies were applied in blocking solution for 1 h at room temperature or over night at 4° C. Membranes were washed in PBT and incubated with corresponding secondary antibodies in 5% non fat dry milk in PBT for 1 h at room temperature. Cells were washed with PBT, incubated with ECL solution and exposed in a Fluorchem 5500 (Biozym, Oldendorf, Germany).
The efficiency of the inhibition of Akt phosphorylation was monitored by Western blotting with antibodies against phospho-Akt. Antibody for actin served as a loading control (FIG. 7B).

Data set [2] has as its system Rh (rhabdomyosarcoma) cell lines. The conditions noted are these: read-out: IC50 growth suppression; cited from earlier work.
In data set [3] the test system is Raji, Daudi, Ramos, Jurkat, C7H2 cell lines. The data set can be described thus: Annexin V/PI apoptosis assay, non-multiple myeloma suspension cell lines. The class given is cell-based. The settings on record: Raji, Ramos, Jurkat, 24 h. As for the experimental part: as §1, §2
Data set [4] has as its system multiple myeloma cell lines. Description: Annexin V/PI apoptosis assay, multiple myeloma cell line panel. The class given is cell-based. The conditions noted are these: OPM2, LP-1, RPMI, U266, 24 h. The method, then: as §1, §2
For data set [5], the system named is PH domain-lacking Akts, PKA, PKC, and SGK. The settings on record: concentrations as high as 50 μM; cited from earlier work.
For data set [6], the system named is peripheral blood mononuclear cells (PBMCs). Description: Annexin V/PI apoptosis assay, PBMCs from healthy donors. The class given is cell-based, human. The conditions noted are these: PBMCs from healthy donors, 48 h, 5 μM Akti1/2 + 20 μg/ml Imiquimod. The method, then:
PBMCs were prepared using separation via Ficoll density gradient centrifugation (Biochrom AG, Berlin, Germany) according to the protocol of the manufacturer.
as §1, §2

In the next data set the test system is Flk-1. The conditions noted are these: cited from earlier work.
Another data set deals with U266 cells. The data set can be described thus: Annexin V/PI apoptosis assay (FACS), U266 cells. Further: key: 0 for no; + for low; ++: + indicates the range of apoptosis induction; +++: + indicates the range of apoptosis induction; ++++ for very strong apoptosis induction. The class given is cell-based. On the set-up: apoptosis induction: unit not given here. The method, then: as §1, §2, §3
Setting [7] is: 24 h, Imi 20 μg/ml + drug 10 μM.
[8] abbreviates: 24 h, Imi 20 μg/ml + drug 50 μM.
Setting [9] is: 48 h, Imi 20 μg/ml + drug 10 μM.
Where [10] appears, read: 48 h, Imi 20 μg/ml + drug 50 μM.

In the case of `CCN(CC)CCCCN1c2ccccc2Oc2ccc(Cl)cc21` [AktX, 10-(4′-(N-diethylamino)butyl)-2-chlorophenoxazine, HCl], the “effect on PI 3-K, PDK1, or SGK1” value with PI 3-K, PDK1, or SGK1 is listed as “minimal effect”. Also, in the data set on OPM2 cells (24 h), the “apoptosis induction, combination” value is recorded as “nearly all cells died” and the “apoptosis induction, single agent” value is given as “some apoptosis”. Besides, the “complete inhibition of Akt phosphorylation and in vitro kinase activity” value in the data set with Akt was below 5 µM. Moreover, the solubility entry in data set [1] is “soluble in H2O”. Also, the “phosphorylation of Akt” value in the data set on Akt phosphorylation is “inhibited the phosphorylation of Akt”. The IC50 in data set [2] is 2000 to 5000 nM.

Regarding `O=c1[nH]c2ccccc2n1C1CCN(Cc2ccc(-c3nc4cc5nc[nH]c5cc4nc3-c3ccccc3)cc2)CC1` [Akti1/2, 1,3-Dihydro-1-(1-((4-(6-phenyl-1H-imidazo[4,5-g]quinoxalin-7-yl)phenyl)methyl)-4-piperidinyl)-2H-benzimidazol-2-one], the “apoptosis induction, combination” value is “affected all cell lines to some extent” in [3] (Daudi, C7H2, 5 μM Akti1/2 + 20 μg/ml Imiquimod); “super-additive effect” in [4] (Akti1/2 5 or 10 μM + Imiquimod 20 μg/ml); “nearly all cells died” in the data set on OPM2 cells (24 h). Besides, the apoptosis induction result in data set [3] (C7H2 (exception Daudi), 5 μM alone) is “only a mild effect”. In addition, the “apoptosis induction, single agent” value (in data set [4] (Imiquimod 20 μg/ml or Akti1/2 5 or 10 μM alone); with OPM2 cells (24 h)) was “some apoptosis” in each case. The inhibitory effect entry in data set [5] is “does not exhibit any inhibitory effect”. Also, the solubility result in data set [1] was “soluble in DMSO”. Also, the “phosphorylation of Akt” value in the data set on Akt phosphorylation was “inhibited the phosphorylation of Akt”. The “sensitivity of PBMCs (general toxicity of the combination)” value in data set [6] is given as “as sensitive as U266 cells”.

Consider `CC(C)c1cc(/C=C(\C#N)C(=O)NCCCc2ccccc2)cc(C(C)C)c1O` [SU1498], for which the apoptosis induction entry in the data set on OPM2 cells (24 h, Imi 20 μg/ml + drug 1 μM) was “+”; in the data set with OPM2 cells (setting [7]), “++”; in the data set on OPM2 cells (setting [8]), “++”; in the data set with OPM2 cells (24 h, drug alone 1 μM), 0; with OPM2 cells (24 h, drug alone 10 μM), “+”; in the data set on OPM2 cells (24 h, drug alone 50 μM), “+”. Moreover, the apoptosis induction entry in the data set on OPM2 cells (48 h, Imi 20 μg/ml + drug 1 μM) is listed as “++”; with OPM2 cells (setting [9]) it was “+++”; in the data set on OPM2 cells (setting [10]) it was “+++”; in the data set on OPM2 cells (48 h, drug alone 1 μM), 0; in the data set on OPM2 cells (48 h, drug alone 10 μM), “+”; in the data set on OPM2 cells (48 h, drug alone 50 μM), “++”. Besides, the apoptosis induction result is reported as “+” in the data set with U266 cells (24 h, Imi 20 μg/ml + drug 1 μM); “++” with U266 cells (setting [7]); “++” in the data set with U266 cells (setting [8]); 0 in the data set on U266 cells (24 h, drug alone 1 μM); “+” with U266 cells (24 h, drug alone 10 μM); “+” in the data set with U266 cells (24 h, drug alone 50 μM). For the same molecule, the apoptosis induction entry in the data set with U266 cells (48 h, Imi 20 μg/ml + drug 1 μM) was “++”; in the data set on U266 cells (setting [9]) it was “++”; with U266 cells (setting [10]), “++”; with U266 cells (48 h, drug alone 1 μM), 0; in the data set on U266 cells (48 h, drug alone 10 μM), “++”; in the data set with U266 cells (48 h, drug alone 50 μM), “++”. Moreover, the concentration for half-maximal inhibition (IC50) in the data set with Flk-1 is 700 nM.
